Source: patent US20030157084A1, “Methods for preparing purified prostaglandin E synthase” (priority 2001, published 2003)
“Also recorded” adds a separate entry of the source.

T1: purified His6-hPGES (Homo sapiens, UniProt O14684)
T1 sequence (O14684 1-152): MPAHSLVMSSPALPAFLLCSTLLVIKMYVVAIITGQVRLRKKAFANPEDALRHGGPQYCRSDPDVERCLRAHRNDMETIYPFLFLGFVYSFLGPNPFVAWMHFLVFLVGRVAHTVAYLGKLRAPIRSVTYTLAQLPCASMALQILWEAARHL


Assays:
purified His6-hPGES [1] = target: T1, purified His6-hPGES; assay: LTC4 synthase activity of purified His6-hPGES with LTA4; type: biochemical; parameters: made in house; host or cells: E. coli BL21(DE3) with pLysSL; conditions: 37 ° C.; up to 100 μg/ml enzyme, 30 μM LTA4, 10 mM GSH, pH 7.4
purified His6-hPGES [2] = target: T1, purified His6-hPGES; assay: Glutathione transferase (GST) activity of purified His6-hPGES with CDNB; type: biochemical; parameters: made in house; host or cells: E. coli BL21(DE3) with pLysSL; conditions: purified His6-hPGES incubated with LTA4
Description: Glutathione transferase (GST) activity (glutathione conjugation) was assayed with the classical model substrate for GSTs, p-chloro-2,4-dinitrobenzene (CDNB). […] Formation of product was detected at 340 nm (molar absorption coefficient for the product, GS-DNB, is 9.6 mM^−1 cm^−1).

[3] = Kinetic properties of other enzymes with PGE synthase activity (literature); type: biochemical; conditions: cytosolic PGES versus His6-hPGES
[4] = 24° C.; Tanioka et al. (2000); cited from earlier work

Row | GST activity after incubation of the enzyme with LTA4 (purified His6-hPGES [2]) | Molecule | Specific activity (LTC4 synthase activity) (purified His6-hPGES [1]) | Vmax compared with specific activity of purified His6-hPGES, times lower [3] | published Vmax [4] [µmol/min/mg]
1 | no GST activity could be detected | CCCCC/C=C\C\C=C/C=C/C=C/[C@@H]1O[C@H]1CCCC(=O)O [LTA4, leukotriene (LT) A4] | No activity above background could be detected; also recorded: Not detectable above background |  | 
2 |  | Cytosolic PGES LPS-induced: enzyme with PGE synthase activity, Rat, brain (Tanioka et al. 2000); recently identified cytosolic PGES (protein, UniProt P83868 1-160, looked up) Prostaglandin E synthase 3: MQPASAKWYDRRDYVFIEFCVEDSKDVNVNFEKSKLTFSCLGGSDNFKHLNEIDLFHCIDPNDSKHKRTDRSILCCLRKGESGQSWPRLTKERAKLNWLSVDFNNWKDWEDDSDEDMSNFDRFSEMMDHMGGDEDVDLPEVDGADDDSQDSDDEKMPDLE |  | about 1,000 times | 0.19
